Assay results taken from paper PMC4669708 (Cell Death & Disease, 2015).

Columns and labels:
[1] = tested on: FADD-deficient Jurkat cells; assay: TNF-α-induced necroptosis, cell viability (CellTiter Glo); assay type: cell-based, human; conditions: 10 ng/ml TNF-α overnight
Description: (§1) Cells were seeded in 12-, 24- or 96-well plates at proper cell density. For necroptosis or apoptosis assays, cells were incubated with the indicated compound combinations at concentrations stated for 14–24 h. Smac mimetic and z-VAD-FMK were added 30–60 min before treatment with TNF-α, FasL or TRAIL. Cell viability was determined using CellTiter Glo Luminescent Cell Viability Assay (Promega, Fitchburg, WI, USA) according to the manufacturer's instructions. Luminescence was recorded with a SpectraMax M5Multimode plate reader (Molecular Devices, Sunnyvale, CA, USA). For flow cytometry-based determination of viability, cells were harvested, collected by centrifugation, washed once and resuspended in staining buffer (1 × PBS, 10% FBS). Cells were incubated with 0.5 μg/ml PI for 10 min at room temperature (RT) in the dark. Flow cytometric analyses were performed on an LSR Fortessa (BD Biosciences) and analyzed with FlowJo software version 7.6.3 (Tree Star Inc, Ashland, OR, USA). Cell size was evaluated by forward scatter. PI-negative normal-sized cells were considered living and data were normalized to values of untreated controls.
The compounds were transferred into drug plates by acoustic droplet ejection using an Echo 520 liquid handler (LABCYTE, Sunnyvale, CA, USA). Necroptosis was induced in FADD-deficient Jurkat cells by addition of 10 ng/ml TNF-α immediately before seeding onto drug plates at a density of 1x10^4 cells/well. After 16 h incubation, cell viability was determined using CellTiter Glo Luminescent Cell Viability Assay according to manufacturer's instructions. Data analysis was performed by calculating a percentage of control to normalize for variability across different plates. The signal for the negative control DMSO wells was set to 0%, whereas the wells containing the positive control Nec-1 were put to 100% for each plate individually.

[2] = tested on: FADD-deficient Jurkat cells; assay: Drug toxicity, cell viability without TNF-α; assay type: cell-based; conditions: Homo sapiens, 24 h, no TNF-α, CellTiter Glo
Description: as §1, with “controls. For detection of apoptosis, cells were resuspended in Annexin V Binding Buffer (BioLegend, San Diego, CA, USA) and stained with 0.5 μg/ml PI and Alexa Fluor 647 Annexin V (BioLegend) according to manufacturer's instructions.” for “controls.”

[3] = tested on: HT-29 cells; assay: TNF-α/Smac mimetic/z-VAD-FMK (TSZ)-induced necroptosis, cell viability; assay type: cell-based, human; conditions: Homo sapiens, HT-29; TSZ treatment; read-out: EC50 (necroptosis block)
Description: as §1

[4] = tested on: 3T3-SA cells; assay: TNF-α/z-VAD (TZ)-induced necroptosis; assay type: cell-based, murine; conditions: Supplementary Figures 3a, b
Description: as §1, with “controls. For detection of apoptosis, cells were resuspended in Annexin V Binding Buffer (BioLegend, San Diego, CA, USA) and stained with 0.5 μg/ml PI and Alexa Fluor 647 Annexin V (BioLegend) according to manufacturer's instructions.” for “controls.”

[5] = molecular target: TUBA1B (Homo sapiens, UniProt P68363); assay: c-ponatinib pulldown LC-MS/MS; assay type: binding
Description: Drug-affinity matrices were prepared as described previously.[51] In brief, 25 nmol of c-ponatinib were immobilized on 50 μl NHS-activated Sepharose 4 Fast Flow beads (GE Healthcare Bio-Sciences AB, Uppsala, Sweden). 10 mg whole cell lysate was used as protein input per replicate. Affinity chromatography and elution were performed in duplicate. After elution, the enriched proteins were reduced with dithiothreitol (DTT) and cysteine residues were alkylated by incubation with iodoacetamide. The samples were digested with modified porcine trypsin (Promega). Five percent of the digested eluates were purified and concentrated by C18 reversed-phase material. Subsequently, samples were analyzed in duplicates by gel-free one-dimensional LCMS.
Precursor and MS/MS peaks were extracted from the RAW files and saved in the MGF format using msconvert tool (ProteoWizard Library v2.1.2708, www.proteowizard.sourceforge.net) for subsequent protein identification. An initial database search was performed with broader mass tolerance and conservative score threshold to re-calibrate the mass lists for optimal final protein identification. For the initial protein database search, Mascot (www.matrixscience.com, v2.3.02) was used. Error tolerances on the precursor and fragment ions were ±10 p.p.m. and ±0.6 Da, respectively, and the database search limited to fully-tryptic peptides with maximum one missed cleavage, carbamidomethyl cysteine and methionine oxidation set as fixed and variable modifications, respectively. The Mascot peptide ion score threshold was set to 30, and at least three peptide identifications per protein were required. Searches were performed against the human UniProtKB/SwissProt database (www.uniprot.org release 2013.01) including all protein isoforms. The initial peptide identifications were used to deduce independent linear transformations for precursor and fragment masses that would minimize the mean square deviation of measured masses from theoretical. Re-calibrated mass list files were searched against the same human protein database by a combination of Mascot and Phenyx (GeneBio SA, Geneva, Switzerland; version 2.5.14) search engines using narrower mass tolerances (±4 p.p.m. and ±0.3 Da). One missed tryptic cleavage site was allowed. Carbamidomethyl cysteine was set as a fixed modification and oxidized methionine was set as a variable modification. To validate the proteins, Mascot and Phenyx output files were processed by internally developed parsers. Proteins with ≥2 unique peptides above a score T1, or with a single peptide above a score T2 were selected as unambiguous identifications. Additional peptides for these validated proteins with score >T3 were also accepted. For Mascot searches, the following thresholds were used: T1=14, T2=40 and T3=10; Phenyx thresholds were set to 4.2, 4.75 and 3.5, respectively (P-value<10^−3). The validated proteins retrieved by the two algorithms were merged, any spectral conflicts discarded and grouped according to shared peptides. A false discovery rate of <1% for protein identifications and <0.1% for peptides (including the ones exported with lower scores) was determined by applying the same procedure against a database of reversed protein sequences. […] In addition to Mascot protein scores that were proposed as an estimate of protein abundance by the original algorithm, the modified version also included Phenyx protein scores and spectral counts. The algorithm first estimated three measure-specific P-values for each putative interaction, and, in contrast to,[69] P-value calculation utilized the quantiles of the measurements rather than the original data. The Fisher's method was used to combine the three resulting P-values into a single P-value for drug–protein interaction specificity. We have also correlated interaction P-values with the magnitude of competition effect represented by the fold reduction of spectral counts on free compound competition. […]

Sequence of TUBA1B (P68363 whole entry): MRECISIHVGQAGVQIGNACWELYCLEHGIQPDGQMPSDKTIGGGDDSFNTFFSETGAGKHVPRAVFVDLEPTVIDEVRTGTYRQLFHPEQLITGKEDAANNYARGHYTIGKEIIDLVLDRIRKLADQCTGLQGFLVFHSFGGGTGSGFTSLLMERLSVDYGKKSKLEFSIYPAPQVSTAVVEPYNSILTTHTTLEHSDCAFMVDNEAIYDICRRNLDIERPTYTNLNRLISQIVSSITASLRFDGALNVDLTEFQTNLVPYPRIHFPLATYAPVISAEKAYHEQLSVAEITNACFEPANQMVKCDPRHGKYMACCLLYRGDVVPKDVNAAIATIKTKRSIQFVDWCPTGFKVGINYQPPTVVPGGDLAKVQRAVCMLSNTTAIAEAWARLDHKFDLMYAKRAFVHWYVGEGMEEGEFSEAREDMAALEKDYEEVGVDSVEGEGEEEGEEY
Sequence of TUBA1B (P07437 whole entry partner): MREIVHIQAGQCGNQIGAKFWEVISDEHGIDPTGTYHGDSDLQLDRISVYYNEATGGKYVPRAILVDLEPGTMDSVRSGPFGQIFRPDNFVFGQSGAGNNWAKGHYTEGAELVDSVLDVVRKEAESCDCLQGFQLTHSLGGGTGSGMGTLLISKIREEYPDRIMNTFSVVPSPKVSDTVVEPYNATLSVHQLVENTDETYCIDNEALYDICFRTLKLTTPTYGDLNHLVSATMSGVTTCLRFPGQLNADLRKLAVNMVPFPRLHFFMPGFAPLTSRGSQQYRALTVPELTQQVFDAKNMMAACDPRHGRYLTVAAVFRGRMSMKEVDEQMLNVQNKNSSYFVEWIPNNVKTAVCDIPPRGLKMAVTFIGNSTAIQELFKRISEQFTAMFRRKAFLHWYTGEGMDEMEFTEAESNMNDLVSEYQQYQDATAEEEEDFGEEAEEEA

Av. SC comp. ([5]; + free ponatinib)	Total SC comp. ([5]; + free ponatinib)	Av. SC ([5]; no competitor)	Total SC ([5]; no competitor)	Structure (SMILES)	rescue of cell viability in drug screen ([1]; 0.5 and 1.5 μM)	EC50 ([1]; Homo sapiens, Jurkat, CellTiter Glo, read-out: EC50 for inhibiting necroptosis) [nM]	IC50 [2] [nM]	EC50 [3] [nM]	block of necroptotic cell death [4]	block of necroptosis compared with ponatinib ([1]; Figure 3b)
				Cc1ccc(C(=O)Nc2ccc(CN3CCN(C)CC3)c(C(F)(F)F)c2)cc1C#Cc1cnc2cccnn12 [ponatinib, Ponatinib]	robustly rescued cell viability at both concentrations	89	1600	50	capable of blocking necroptotic cell death with comparable potency	
10.25	41	18.5	74	Cc1ccc(C(=O)Nc2ccc(CN3CCN(CCCN)CC3)c(C(F)(F)F)c2)cc1C#Cc1cnc2cccnn12 [c-ponatinib]						blocked necroptosis with only a minor reduction in potency
